Assay [1] addresses human Gal-3 (hGal-3) (Homo sapiens (Human), UniProt P17931). The assay can be described thus: Competitive binding assay: binding of biotinylated hGal-3 to microplate-adsorbed asialofetuin (ASF). The note with it: Activity on hGal-3; mean values of several measurements. Put shortly: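 Biotinylated hGal-3 (300-1000 ng/mL) bound to ASF-coated wells with serially diluted compound, 3 h at 4° C. After washing, bound protein was detected with streptavidin-peroxidase (80 ng/mL, 1 h, 4° C) and ABTS substrate; IC50 values are means of several measurements.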

The target in assay [2] is human Gal-1 (hGal-1). Put plainly: Competitive binding assay: binding of biotinylated hGal-1 to microplate-adsorbed asialofetuin (ASF). The conditions noted are these: Activities on hGal-1; mean values of several measurements. Put shortly: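 Compounds diluted in DMSO competed with biotinylated hGal-3 or hGal-1 (300-1000 ng/mL) for binding to plate-adsorbed asialofetuin for 3 h at 4° C. Bound galectin was detected with streptavidin-peroxidase (80 ng/mL, 1 h, 4° C) and ABTS substrate; IC50 reported as mean of several measurements.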

Molecules are shown by their SMILES.

Sequence of human Gal-3 (hGal-3) (P17931 whole entry): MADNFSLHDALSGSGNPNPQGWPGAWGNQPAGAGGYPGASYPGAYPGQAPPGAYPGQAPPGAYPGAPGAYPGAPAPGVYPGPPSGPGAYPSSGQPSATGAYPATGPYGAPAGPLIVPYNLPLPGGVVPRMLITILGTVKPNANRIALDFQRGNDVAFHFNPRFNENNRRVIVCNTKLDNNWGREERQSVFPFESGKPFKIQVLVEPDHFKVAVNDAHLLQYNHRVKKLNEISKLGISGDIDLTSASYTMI
Sequence of human Gal-1 (hGal-1) (P09382 2-135 limits assumed): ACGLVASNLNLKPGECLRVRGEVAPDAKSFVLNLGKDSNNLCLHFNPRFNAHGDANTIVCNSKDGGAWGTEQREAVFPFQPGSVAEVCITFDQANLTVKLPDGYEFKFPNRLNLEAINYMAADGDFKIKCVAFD

Turning to `CO[C@@H]1[C@@H](n2cc(-c3cc(F)c(C)c(F)c3)nn2)[C@@H](O)[C@@H](CO)O[C@@H]1Cc1cc(C(C)(C)C)on1` [Ex 1.188], the IC50 – broadly, the concentration that inhibits the measured activity by half – amounted to 180 nM in assay [1] and 7620 nM in assay [2].
`CO[C@@H]1[C@@H](n2cc(-c3cc(F)c(F)c(F)c3)nn2)[C@@H](O)[C@@H](CO)O[C@@H]1Cc1cc(C2CCNCC2)on1` [Example 3.16, (2R,3R,4S,5R,6R)-2-(hydroxymethyl)-5-methoxy-6-((5-(piperidin-4-yl)isoxazol-3-yl)methyl)-4-(4-(3,4,5-trifluorophenyl)-1H-1,2,3-triazol-1-yl)tetrahydro-2H-pyran-3-ol]: the IC50 in assay [1] turned out to be 220 nM; in assay [2], 5190 nM.
Regarding `CC(C)(C)OC(=O)N1CCC(C2=NOC(C[C@H]3O[C@H](CO)[C@H](O)[C@H](n4cc(-c5cc(F)c(F)c(F)c5)nn4)[C@H]3OCC(=O)N3CCOCC3)C2)CC1` (mixture of isomers) [Example 2.36, tert-butyl 4-((RS)-5-(((2R,3R,4S,5R,6R)-5-hydroxy-6-(hydroxymethyl)-3-(2-morpholino-2-oxoethoxy)-4-(4-(3,4,5-trifluorophenyl)-1H-1,2,3-triazol-1-yl)tetrahydro-2H-pyran-2-yl)methyl)-4,5-dihydroisoxazol-3-yl)piperidine-1-carboxylate], the values for the IC50 in assay [1] and in assay [2] were 120 nM and 2770 nM, respectively.
`CO[C@@H]1[C@@H](n2cc(-c3ccc(C#N)c(F)c3F)nn2)[C@@H](O)[C@@H](CO)O[C@@H]1Cc1cc(C(C)(C)C)on1` [Ex 1.267]: the IC50 in assay [1] worked out at 160 nM; in assay [2], 6100 nM.
With `CC(=O)O[C@@H]1[C@@H](n2cc(-c3cc(F)c(F)c(F)c3)nn2)[C@@H](O)[C@@H](CO)O[C@@H]1CC1CC(C2CCN(C(=O)OC(C)(C)C)CC2)=NO1` (some centres unmarked) [Ex 1.44], the IC50 in assay [1] worked out at 65 nM; in assay [2], 1710 nM.
On to `CC(C)(C)c1cc(C[C@H]2O[C@H](CO)[C@H](O)[C@H](n3cc(-c4cc(F)c(F)c(F)c4)nn3)[C@H]2O)no1` [Ex 1.51], for which the IC50 in assay [1] was 150 nM; in assay [2], 2500 nM.
As to `CO[C@@H]1[C@@H](n2cc(-c3ccc(C)c(F)c3F)nn2)[C@@H](O)[C@@H](CO)O[C@@H]1Cc1cc(C(C)(C)C)no1` [Ex 1.254], the IC50 in assay [1] was 31 nM; in assay [2] it was 1110 nM.
For the compound `COc1cccc(-c2cn([C@H]3[C@@H](O)[C@@H](CO)O[C@H](CC4CC(C5CCN(C(=O)OC(C)(C)C)CC5)=NO4)[C@@H]3O)nn2)c1` (some centres unmarked) [Ex 1.300], the IC50 in assay [1] was 1410 nM; in assay [2], 2270 nM.
Consider `CO[C@@H]1[C@@H](n2cc(-c3cc(F)c(F)c(F)c3)nn2)[C@@H](O)[C@@H](CO)O[C@@H]1Cc1cn(C2CCSCC2)nn1` [Example 4.14, (2R,3R,4S,5R,6R)-2-(hydroxymethyl)-5-methoxy-6-((1-(tetrahydro-2H-thiopyran-4-yl)-1H-1,2,3-triazol-4-yl)methyl)-4-(4-(3,4,5-trifluorophenyl)-1H-1,2,3-triazol-1-yl)tetrahydro-2H-pyran-3-ol], for which the concentration for half-maximal inhibition (IC50) worked out at 36 nM in assay [1] and 3880 nM in assay [2].
With `CO[C@@H]1[C@@H](n2cc(-c3cc(F)c(F)c(F)c3)nn2)[C@@H](O)[C@@H](CO)O[C@@H]1C[C@H]1CC(C2CCCCC2)=NO1` [Ex 1.09], the IC50 in assay [1] stood at 2150 nM; in assay [2], 27500 nM.
Take `CO[C@@H]1[C@@H](n2cc(-c3cc(F)c(F)c(F)c3)nn2)[C@@H](O)[C@@H](CO)O[C@@H]1Cc1cc(-c2ccn(C)c(=O)c2)on1` [Ex 1.119]: the IC50 in assay [1] was found to be 260 nM; in assay [2] it was 4170 nM.
For `CO[C@@H]1[C@@H](n2cc(-c3ccc(Cl)c(F)c3)nn2)[C@@H](O)[C@@H](CO)O[C@@H]1Cc1cc(C(C)(C)C)on1` [Ex 1.192], the IC50 in assay [1] was determined as 200 nM; in assay [2], 1880 nM.
For `CO[C@@H]1[C@@H](n2cc(-c3cc(F)c(F)c(F)c3)nn2)[C@@H](O)[C@@H](CO)O[C@@H]1Cc1cn(C2CCS(=O)(=O)CC2)nn1` [Example 4.16, 4-(4-(((2R,3R,4S,5R,6R)-5-hydroxy-6-(hydroxymethyl)-3-methoxy-4-(4-(3,4,5-trifluorophenyl)-1H-1,2,3-triazol-1-yl)tetrahydro-2H-pyran-2-yl)methyl)-1H-1,2,3-triazol-1-yl)tetrahydro-2H-thiopyran 1,1-dioxide] the same measures were 35 nM and 670 nM.
For `O=c1[nH]c2ccc(C3=NO[C@@H](C[C@H]4O[C@H](CO)[C@H](O)[C@H](n5cc(-c6cc(F)c(F)c(F)c6)nn5)[C@H]4O)C3)cc2o1` [Ex 1.32] the same measures were 53 nM and 1150 nM.
For `CO[C@@H]1[C@@H](n2cc(-c3cc(F)c(F)c(F)c3)nn2)[C@@H](O)[C@@H](CO)O[C@@H]1Cc1cc(C2CCN(CC3CC3)CC2)on1` [Example 3.43, (2R,3R,4S,5R,6R)-6-((5-(1-(cyclopropylmethyl)piperidin-4-yl)isoxazol-3-yl)methyl)-2-(hydroxymethyl)-5-methoxy-4-(4-(3,4,5-trifluorophenyl)-1H-1,2,3-triazol-1-yl)tetrahydro-2H-pyran-3-ol], the concentration for half-maximal inhibition (IC50) was found to be 130 nM in assay [1] and 2830 nM in assay [2].
Turning to `CCO[C@@H]1[C@@H](n2cc(-c3cc(F)c(F)c(F)c3)nn2)[C@@H](O)[C@@H](CO)O[C@@H]1CC1CC(C2CCN(C(=O)OC(C)(C)C)CC2)=NO1` (mixture of isomers) [Example 2.31, tert-butyl 4-((RS)-5-(((2R,3R,4S,5R,6R)-3-ethoxy-5-hydroxy-6-(hydroxymethyl)-4-(4-(3,4,5-trifluorophenyl)-1H-1,2,3-triazol-1-yl)tetrahydro-2H-pyran-2-yl)methyl)-4,5-dihydroisoxazol-3-yl)piperidine-1-carboxylate], the IC50 in assay [1] was 300 nM; in assay [2], 1290 nM.
For the compound `COc1ccc(-c2cc(C[C@H]3O[C@H](CO)[C@H](O)[C@H](n4cc(-c5cc(F)c(F)c(F)c5)nn4)[C@H]3O)on2)cc1` [Example 2.01, (2R,3R,4R,5R,6R)-2-(hydroxymethyl)-6-((3-(4-methoxyphenyl)isoxazol-5-yl)methyl)-4-(4-(3,4,5-trifluorophenyl)-1H-1,2,3-triazol-1-yl)tetrahydro-2H-pyran-3,5-diol], the IC50 in assay [1] came to 840 nM; in assay [2] it was 8360 nM.
Take `CO[C@@H]1[C@@H](n2cc(-c3ccc(F)c(F)c3F)nn2)[C@@H](O)[C@@H](CO)O[C@@H]1CC1CC(C2CCNCC2)=NO1` (some centres unmarked) [Ex 1.144]: the IC50 in assay [1] amounted to 180 nM; in assay [2], 740 nM.
Taken in the same sequence, the figures for `CO[C@@H]1[C@@H](n2cc(-c3cc(F)c(F)c(F)c3)nn2)[C@@H](O)[C@@H](CO)O[C@@H]1Cc1cn(C2CCS(=N)(=O)CC2)nn1` (stereo partly drawn) [Example 4.17, 4-(4-(((2R,3R,4S,5R,6R)-5-hydroxy-6-(hydroxymethyl)-3-methoxy-4-(4-(3,4,5-trifluorophenyl)-1H-1,2,3-triazol-1-yl)tetrahydro-2H-pyran-2-yl)methyl)-1H-1,2,3-triazol-1-yl)-1-iminohexahydro-1l6-thiopyran 1-oxide] were 25 nM and 170 nM.
With `OC[C@H]1O[C@H](CC2CC(c3ccc4[nH]cnc4c3)=NO2)[C@H](O)[C@@H](n2cc(-c3cc(F)c(F)c(F)c3)nn2)[C@H]1O` (some centres unmarked) [Ex 1.26], the IC50 turned out to be 1150 nM in assay [1] and 17500 nM in assay [2].
For `CN=S(=O)(C(C)C)N1CCC(c2cc(C[C@H]3O[C@H](CO)[C@H](O)[C@H](n4cc(-c5cc(F)c(F)c(F)c5)nn4)[C@H]3OC)no2)CC1` (mixture of isomers) [Example 3.57, (RS)-(2R,3R,4S,5R,6R)-2-(hydroxymethyl)-5-methoxy-6-((5-(1-(N-methylpropan-2-ylsulfonimidoyl)piperidin-4-yl)isoxazol-3-yl)methyl)-4-(4-(3,4,5-trifluorophenyl)-1H-1,2,3-triazol-1-yl)tetrahydro-2H-pyran-3-ol] the same measures were 97 nM and 1400 nM.
In the case of `CO[C@@H]1[C@@H](n2cc(-c3ccc(Cl)c(F)c3F)nn2)[C@@H](O)[C@@H](CO)O[C@@H]1Cc1cc(C(C)(C)C)on1` [Ex 1.190], the half-maximal inhibitory concentration (IC50) is 71 nM in assay [1] and 4610 nM in assay [2].
For `CO[C@@H]1[C@@H](n2cc(-c3ccc(Br)c(F)c3F)nn2)[C@@H](O)[C@@H](CO)O[C@@H]1CC1CC(C2CCN(C(=O)OC(C)(C)C)CC2)=NO1` (some centres unmarked) [Ex 1.141] the same measures were 97 nM and 790 nM.
On to `CO[C@@H]1[C@@H](n2cc(-c3ccc(Br)c(F)c3F)nn2)[C@@H](O)[C@@H](CO)O[C@@H]1Cc1cc(C2CCCCC2)on1` [Ex 1.173], for which the half-inhibitory concentration (IC50) in assay [1] worked out at 440 nM; in assay [2], 47800 nM.
As for `CCc1cc(C[C@H]2O[C@H](CO)[C@H](O)[C@H](n3cc(-c4cc(F)c(F)c(F)c4)nn3)[C@H]2OC)on1` [Ex 1.307], the IC50 in assay [1] is 670 nM; in assay [2], 7220 nM.
As for `CO[C@@H]1[C@@H](n2cc(-c3cc(F)c(F)c(F)c3)nn2)[C@@H](O)[C@@H](CO)O[C@@H]1Cc1cc(C2CNC(=O)C2)no1` (some centres unmarked) [Ex 1.94], the IC50 is 140 nM in assay [1] and 4760 nM in assay [2].
As for `CO[C@@H]1[C@@H](n2cc(-c3cc(F)c(F)c(F)c3)nn2)[C@@H](O)[C@@H](CO)O[C@@H]1Cn1cc(C(C)(C)O)nn1` [Example 4.44, (2R,3R,4S,5R,6R)-2-(hydroxymethyl)-6-((4-(2-hydroxypropan-2-yl)-1H-1,2,3-triazol-1-yl)methyl)-5-methoxy-4-(4-(3,4,5-trifluorophenyl)-1H-1,2,3-triazol-1-yl)tetrahydro-2H-pyran-3-ol], the IC50 was 240 nM in assay [1] and 15000 nM in assay [2].
Take `CO[C@@H]1[C@@H](n2cc(-c3ccc(C)c(F)c3F)nn2)[C@@H](O)[C@@H](CO)O[C@@H]1Cc1cc(C(C)c2ccccc2)no1` (some centres unmarked) [Ex 1.342]: the concentration for half-maximal inhibition (IC50) in assay [1] was found to be 550 nM; in assay [2] it was 33000 nM.

The values are drawn from patent US12319672B2, “Alpha-D-galactopyranoside derivatives” (Idorsia Pharmaceuticals Ltd, priority 2019, dated 2025).
